Test results published in ChEMBL document CHEMBL3588744, “Structure-Based Optimization of Naphthyridones into Potent ATAD2 Bromodomain Inhibitors” (J Med Chem, 2015).
Converted amounts (≈) assume the structure as drawn.

What was measured:
[1] = molecular target: Bromodomain-containing protein 4 (Homo sapiens, UniProt O60885, Y390A)
[2] = Distribution coefficient, log D of the compound at pH 7.4 by chromatographic method; format: physicochemical; conditions: octanol/water
physchem = conditions: phosphate buffered saline, pH 7.4, solubility
Description: Solubility of the compound in phosphate buffered saline at pH 7.4 after 1 hr by CLND method

[3] = Permeability across phosphatidyl choline membrane at pH 7.4 after 3 hrs by HPLC with UV detection method; format: ADME; conditions: not told, read-out: permeability
[4] = molecular target: T1, ATPase family AAA domain-containing protein 2 (Homo sapiens, UniProt Q6PL18)
T1 sequence (Q6PL18 whole entry): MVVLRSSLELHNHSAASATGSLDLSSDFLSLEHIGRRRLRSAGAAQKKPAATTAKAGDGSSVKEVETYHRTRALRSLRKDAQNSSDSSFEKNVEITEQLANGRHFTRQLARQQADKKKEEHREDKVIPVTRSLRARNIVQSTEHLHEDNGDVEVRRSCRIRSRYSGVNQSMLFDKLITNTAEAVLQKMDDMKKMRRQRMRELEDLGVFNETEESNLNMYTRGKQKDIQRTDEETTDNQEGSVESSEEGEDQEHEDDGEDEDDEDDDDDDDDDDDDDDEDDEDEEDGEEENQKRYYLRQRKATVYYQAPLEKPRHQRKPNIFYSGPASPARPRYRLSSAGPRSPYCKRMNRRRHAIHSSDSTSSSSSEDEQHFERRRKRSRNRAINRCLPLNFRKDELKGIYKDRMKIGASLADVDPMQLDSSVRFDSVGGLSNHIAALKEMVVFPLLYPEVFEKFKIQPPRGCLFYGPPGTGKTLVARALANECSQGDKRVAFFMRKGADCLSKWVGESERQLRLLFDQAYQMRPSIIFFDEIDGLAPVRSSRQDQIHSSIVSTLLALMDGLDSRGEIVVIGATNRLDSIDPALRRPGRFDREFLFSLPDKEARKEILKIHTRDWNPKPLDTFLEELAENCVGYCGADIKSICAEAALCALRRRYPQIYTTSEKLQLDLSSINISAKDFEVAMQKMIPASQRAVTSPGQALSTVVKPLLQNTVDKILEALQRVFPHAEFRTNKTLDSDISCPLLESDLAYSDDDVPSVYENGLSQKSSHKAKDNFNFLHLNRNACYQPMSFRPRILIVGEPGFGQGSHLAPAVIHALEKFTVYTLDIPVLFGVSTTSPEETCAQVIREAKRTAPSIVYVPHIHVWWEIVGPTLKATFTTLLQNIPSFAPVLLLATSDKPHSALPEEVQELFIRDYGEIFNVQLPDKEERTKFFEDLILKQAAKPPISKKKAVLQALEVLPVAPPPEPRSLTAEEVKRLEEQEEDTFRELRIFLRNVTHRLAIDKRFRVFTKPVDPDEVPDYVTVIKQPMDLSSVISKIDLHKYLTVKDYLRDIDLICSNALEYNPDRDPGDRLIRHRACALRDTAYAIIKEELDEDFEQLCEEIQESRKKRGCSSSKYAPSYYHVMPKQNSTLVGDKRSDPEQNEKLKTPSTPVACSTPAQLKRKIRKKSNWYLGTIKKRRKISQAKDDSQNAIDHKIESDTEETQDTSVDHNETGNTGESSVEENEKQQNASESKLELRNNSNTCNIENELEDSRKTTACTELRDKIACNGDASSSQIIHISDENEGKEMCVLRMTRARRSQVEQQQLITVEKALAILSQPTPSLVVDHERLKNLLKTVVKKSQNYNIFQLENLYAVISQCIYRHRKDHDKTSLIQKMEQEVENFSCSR
Description: Displacement of histone H4 peptide from FLAG-6His-Tev-ATAD2 (981 to 1121) (unknown origin) expressed in Escherichia coli BL21 (DE3) after 30 mins by TR-FRET analysis relative to control

| Compound | IC50 [1] | chromatographic logD [2] | solubility kinetic at 1 h (physchem) | Papp at 3 h [3] | logD [2] | IC50 [4] |
| --- | --- | --- | --- | --- | --- | --- |
| Cc1cc2ccnc(N[C@H]3CCNC[C@@H]3OCC3CCCCC3)c2[nH]c1=O | 12.6 µM | 3.3 | 140 µM (≈ 51.9 µg/mL) | – | – | – |
| Cc1cc2ccnc(N[C@@H]3CCNC[C@H]3OCC3CCCCC3)c2[nH]c1=O | 3.98 µM | – | – | 13 ×10⁻⁶ cm/s | – | – |
| Cc1cncc(-c2cnc(N[C@H]3CCNC[C@@H]3OCC3CCCCC3)c3[nH]c(=O)c(C)cc23)c1 | – | 4.2 | 196 µM (≈ 90.5 µg/mL) | – | – | – |
| Cc1cc2c(-c3cncc(N)c3)cnc(N[C@@H]3CCNC[C@H]3OCC3CCCCC3)c2[nH]c1=O | – | 2.2 | 494 µM (≈ 229 µg/mL) | – | – | – |
| Cc1cc2ccnc(N[C@@H]3CCNC[C@H]3OCC3CCOCC3)c2[nH]c1=O | – | – | – | < 1 ×10⁻⁶ cm/s | 1.5 | – |
| Cc1cc2ccnc(N[C@H]3CCNC[C@@H]3OCC3CCOCC3)c2[nH]c1=O | 12.6 µM | 1.5 | ≥ 352 µM | – | – | – |
| Cc1cc2ccnc(N[C@@H]3CCNC[C@H]3OCC3CCS(=O)(=O)CC3)c2[nH]c1=O | 12.6 µM | – | – | < 0.65 ×10⁻⁶ cm/s | – | – |
| Cc1cc2ccnc(N[C@H]3CCNC[C@@H]3OCC3CCS(=O)(=O)CC3)c2[nH]c1=O | 5.01 µM | 1.1 | ≥ 531 µM | – | – | – |
| CO[C@@H]1CNCC[C@H]1Nc1nccc2cc(C)c(=O)[nH]c12 | 6.31 µM | 0.9 | ≥ 306 µM | – | – | 10 µM |
| Cc1cc2ccnc(N[C@@H]3CCNC[C@H]3OCCC3CCOCC3)c2[nH]c1=O (racemic) | 25.1 µM | 1.5 | ≥ 327 µM | – | – | – |
| Cc1cc2ccnc(N[C@@H]3CCNC[C@H]3OCC3CCCCC3)c2[nH]c1=O (racemic) | 5.01 µM | 3.3 | 285 µM (≈ 106 µg/mL) | – | – | – |
| CC(=O)N1CCC(CO[C@@H]2CNCC[C@H]2Nc2nccc3cc(C)c(=O)[nH]c23)CC1 (racemic) | 10 µM | 1.2 | ≥ 392 µM | – | – | 7.94 µM |
| Cc1cc2ccnc(N[C@@H]3CCNC[C@H]3OC[C@H]3CC[C@H](O)CC3)c2[nH]c1=O (racemic) | 12.6 µM | 0.7 | ≥ 323 µM | – | – | 5.01 µM |
| Cc1cc2ccnc(N[C@@H]3CCNC[C@H]3OCC3CCOCC3)c2[nH]c1=O (racemic) | 10 µM | 1.7 | 298 µM (≈ 111 µg/mL) | – | – | – |
| Cc1cc2ccnc(N[C@@H]3CCNC[C@H]3OCC3CCS(=O)(=O)CC3)c2[nH]c1=O (racemic) | 6.31 µM | 1 | ≥ 309 µM | – | – | – |
| Cc1cc2ccnc(N[C@@H]3CCNC[C@H]3OC[C@@H]3CCS(=O)(=O)C3)c2[nH]c1=O (racemic) | 12.6 µM | 1 | ≥ 328 µM | – | – | 5.01 µM |
| Cc1cc2ccnc(N[C@@H]3CCNC[C@H]3OC(C)C)c2[nH]c1=O (racemic) | 25.1 µM | 1.8 | 207 µM (≈ 65.5 µg/mL) | – | – | 63.1 µM |
| CCCO[C@@H]1CNCC[C@H]1Nc1nccc2cc(C)c(=O)[nH]c12 (racemic) | 6.31 µM | 1.8 | ≥ 280 µM | – | – | 25.1 µM |
| Cc1cc2ccnc(N[C@@H]3CCNC[C@H]3OCC(C)C)c2[nH]c1=O (racemic) | 6.31 µM | 2.3 | ≥ 290 µM | – | – | – |
| Cc1cc2ccnc(N[C@@H]3CCNC[C@H]3OCC3CCCC3)c2[nH]c1=O (racemic) | 10 µM | 3.1 | ≥ 275 µM | – | – | 7.94 µM |
| Cc1cc2ccnc(N[C@@H]3CCNC[C@H]3OCC3CCCCCC3)c2[nH]c1=O (racemic) | 5.01 µM | 4 | ≥ 316 µM | – | – | 2 µM |
| Cc1cncc(-c2ccc(N[C@@H]3CCNC[C@H]3OCC3CCS(=O)(=O)CC3)c3[nH]c(=O)c(C)cc23)c1 (racemic) | – | – | 217 µM (≈ 111 µg/mL) | < 0.3 ×10⁻⁶ cm/s | – | – |
